From EP4813991A1 (iLeadBMS Co., Ltd., priority 2023, dated 2025)

Legend:
SW480 = assay: Colorectal cancer cell proliferation inhibitory activity, SW480; type: cell-based; details: Homo sapiens, 72 hours, Cell Counting Kit-8, relative IC50
Experimental: (§1) Experiments were performed using seven types of colorectal cancer cell lines to measure the cell proliferation inhibitory ability of each Example compound. DLD-1, LoVo, SW620, SW480, HCT116, HCT15, and HT29 cells were dispensed into a 96-well plate at 100 µL of cell suspension per well using RPMI1640 medium containing 10 % FBS and 1 % PS, followed by incubation in a cell incubator at 37 °C and 5 % CO2. The next day, each Example compound dissolved and diluted in DMSO across 10 concentration ranges and a DMSO control group were treated on the cells for 72 hours. After completion of the compound treatment, 10 µL of Cell Counting Kit-8 (Dojindo) reagent was added to each well of the 96-well plate, followed by incubation for 2 hours. […] were measured after inserting the 96-well plate into an Envision plate reader […]. Relative IC50 values were calculated by fitting a dose-response curve using Graphpad PRISM software.
(§2) The colorectal cancer cell proliferation inhibitory activities of the Example compounds measured by the method described above were evaluated according to the following criteria, and the results are presented in Table 19.

AGS cells = assay: Gastric cancer cell proliferation inhibitory activity (Cell Counting Kit-8), AGS; type: cell-based; details: Homo sapiens, 72 hours, Cell Counting Kit-8, relative IC50
Experimental: as §1, with “six” for “seven”, “gastric” for “colorectal”, “NCI-N87, SNU601, KATO-III, MKN1,” for “DLD-1, LoVo, SW620, SW480, HCT116, HCT15,”, “AGS” for “HT29”, “RPMI1640 medium containing 10 % FBS and 1 % PS, followed by incubation in a cell incubator at 37 °C and 5 % CO2. HS746T cells were dispensed into a 96-well plate at 100 µL of cell suspension per well using DMEM” for “RPMI1640”
The gastric cancer cell proliferation inhibitory activities of the Example compounds measured by the method described above were evaluated according to the following criteria, and the results are presented in Table 20.

AGS gastric cancer cells = assay: Zebrafish xenograft gastric cancer model (AGS); type: in vivo
Experimental: Transgenic Tg(fli1:EGFP)y1 zebrafish embryos were cultured in E3 embryo medium with 0.2 mM 1-phenyl-2-thiourea (PTU) at 28 °C for 48 hours. HCC70 breast cancer cells were cultured using RPMI-1640 medium supplemented with 10 % FBS, and AGS gastric cancer cells were cultured using F-12K medium supplemented with 10 % FBS. Each cell was collected, labeled with Dil red fluorescent dye, and then subcutaneously transplanted into 2-day-old zebrafish embryos. After selecting embryos with tumors, they were classified into experimental groups (20 embryos per group), and each Example compound dissolved and diluted in DMSO across 2 to 3 concentration ranges, a DMSO control group, or a comparative compound were added, followed by incubation at 35.5 °C for 48 hours or 72 hours. In the breast cancer model, primary tumors were collected immediately after transplantation (Day 0) and after 48 hours (Day 2), and in the gastric cancer model, primary tumors were obtained immediately after transplantation (Day 0) and after 72 hours (Day 3). Images of the collected tumors were analyzed for reduction in tumor size compared to the DMSO control group using image software, and the number of disseminated cancer cells after 3 days was manually counted through the captured images, with the results shown in FIGs. 6, 7, and 8. […]

HT29 cells = assay: Colorectal cancer cell proliferation inhibitory activity, HT29; type: cell-based; details: Homo sapiens, HT-29; 72 hours, Cell Counting Kit-8, relative IC50
Experimental: as §1, §2

Cyclin K = assay: Analysis of Cyclin K degradation ability in MKN45 gastric cancer cells (western blot); type: cell-based; details: 8 hours or 24 hours, compared to the negative control group (DMSO), FIGs. 4 and 5
Experimental: In order to confirm the Cyclin K degradation ability of the Example compounds, HCC70 breast cancer cells and MKN45 gastric cancer cells were cultured in RPMI-1640 medium supplemented with 10 % FBS, and then the cells were collected to prepare cell suspensions. The HCC70 breast cancer cell suspension was dispensed at a cell number of 2.0 X 10^6 per 6-well and cultured in a 5 % CO2 cell incubator at 37 °C for 24 hours, and the MKN45 gastric cancer cell suspension was dispensed at a cell number of 5.0 X 10^6 per 6-well and cultured in a 5 % CO2 cell incubator at 37 °C for 24 hours. The next day, each Example compound dissolved and diluted in DMSO across 4 to 5 concentration ranges and a negative control group (DMSO-treated group) were added to the 6-wells, and the HCC70 breast cancer cells were treated for 8 hours while the MKN45 gastric cancer cells were treated with the compounds for 8 hours or 24 hours. After completion of the compound treatment, the medium was removed, each cell was washed with PBS, and then 100 µL of RIPA buffer for cell lysis was added to each 6-well to collect cell lysates. The protein concentration of the cell lysates was quantified by the […], and loading buffer was added to adjust the protein concentration to 30 µg, followed by reaction at 85 °C for 10 minutes, centrifugation, and standing at room temperature. […]

Row | IC50 (HT29 cells) [nM] | Compound | IC50 (SW480) [nM] | IC50 (AGS cells) [nM] | number of metastatic gastric cancer cells (AGS gastric cancer cells; 0.1 µM, compared to 1 mM of 5-FU, FIG. 8) | reduction in tumor size (AGS gastric cancer cells; 72 hours, compared to the vehicle, FIG. 7) | Cyclin K degradation ability (Cyclin K)
1 | ≤ 200 | CN1CCN(c2cc(NCc3nc4ccc(F)c(F)c4[nH]3)c3ncc(C(F)(F)F)n3n2)CC1 [Example 8, N-((6,7-difluoro-1H-benzo[d]imidazol-2-yl)methyl)-6-(4-methylpiperazin-1-yl)-3-(trifluoromethyl)imidazo[1,2-b]pyridazin-8-amine] | ≤ 200 | ≤ 200 | significant reduction in the number of metastatic gastric cancer cells | dose-dependent reduction in tumor size | strongly degrade Cyclin K
2 | – | Nc1ncc(-c2cc(NCc3nc4cc(Cl)c(Cl)cc4[nH]3)c3ncc(C(F)(F)F)n3n2)cn1 [Example 40] | ≤ 200 | ≤ 200 | – | – | strongly degrade Cyclin K
